A word on the IC50: it is the concentration that inhibits the measured activity by half.

One assay concerns RCC4. Kind of assay: XTT IC50 / viability assay, RCC4 cells. Format: cell-based, human. The procedure, abridged:
(§1)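 RCC4 parental and VHL-reintroduced RCC4/VHL cells (DMEM, 10% FCS) treated with serially diluted drug for four days. Viability by XTT (0.3 mg/mL) with N-methyl dibenzopyrazine methyl sulfate, 1–2 h at 37 °C, absorbance 450 nm; IC50 by linear interpolation.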
On the technique in general: Tetrazolium dyes change colour on reduction, which living cells bring about.

The subject of another assay is RCC4/VHL. Kind of assay: XTT IC50 assay, selectivity RCC4 versus RCC4 with VHL-reintroduced. Format: cell-based, human. As to conditions: selectivity ratio of XTT IC50 values, RCC4 vs RCC4/VHL. The procedure, abridged: as §1
For another assay, the system named is hexokinase. Kind of assay: Hexokinase activity in whole cell lysates, RCC4/VHL. Format: cell-based, human. Particulars: 5 μM. On the procedure:
(§2) All cells were grown in DMEM+10% FCS. ACHN and ACHN shVHL were a kind gift from George V. Thomas (UCLA). HIF overexpressing clones were described previously. Transfection of RNA oligos were performed with DnarmaFECT Reagent 1 (Dharmcon), according to manufacturer's directions. ON-TARGETplus SMART pools against HIF-1β/ARNT were purchased from Dharmacon. Glut1 was detected with anti-GLUT1 antibody from NeoMarkers/LabVision/Fisher. Pyruvate/lactate levels and hexokinase activity were both measured by fluorometric assay (BioVision and Sigma-Aldrich, respectively). ATP levels were measured by bioluminescence assay (ATP Determination Kit from Molecular Probes/Invitrogen). In vitro kinase activities were performed by Millipore KinaseProfiler. Affi-Gel 10 (BioRad) activated affinity media was coupled to analogs to generate immobilized affinity linkers.
We then examined whether this decrease in glycolysis in response to compound 47 was due to a decrease in glucose uptake or whether compound 47 inhibited a particular glycolytic enzyme. To test this, we measured glucose uptake using 2-deoxy-D-[^3H] glucose, a non-hydrolyzable, radioactive glucose analog, following two days of treatment with compound 47. […] RCC4/VHL cells had lower baseline levels of glucose uptake compared to RCC4 cells and were unaffected by treatment with compound 47. […]

The test system of the next assay is AMPK. The experiment in a line: In vitro kinase activity (Millipore KinaseProfiler): AMPK. It counts as biochemical. Particulars: no head or unit printed. On the procedure: as §2
(§3) We next wanted to investigate the differential glucose uptake between RCCs with and without VHL treated with compound 47 that subsequently lead to the selective death of VHL-deficient cells. We first examined the message levels of the two main glucose transporters, GLUT1 and GLUT2 by quantitative real-time PCR. GLUT1 is an inducible, high-affinity glucose transporter, while GLUT2 is the glucose transporter responsible for basal glucose uptake. […] Cells deficient in VHL had very low levels of GLUT2 that could barely be detected (FIG. 3J). […]

The next assay concerns the target T1, ASK1 (Homo sapiens, UniProt Q99683).
T1 construct: purchased Millipore (KinaseProfiler service)
The experiment in a line: In vitro kinase activity (Millipore KinaseProfiler): ASK1. It counts as biochemical. Particulars: no head or unit printed. How it is done: as §2, §3

A further assay deals with T2, Axl (Homo sapiens, UniProt P30530).
T2 construct: purchased Millipore (KinaseProfiler service)
T2 sequence (P30530 26-894, species assumed): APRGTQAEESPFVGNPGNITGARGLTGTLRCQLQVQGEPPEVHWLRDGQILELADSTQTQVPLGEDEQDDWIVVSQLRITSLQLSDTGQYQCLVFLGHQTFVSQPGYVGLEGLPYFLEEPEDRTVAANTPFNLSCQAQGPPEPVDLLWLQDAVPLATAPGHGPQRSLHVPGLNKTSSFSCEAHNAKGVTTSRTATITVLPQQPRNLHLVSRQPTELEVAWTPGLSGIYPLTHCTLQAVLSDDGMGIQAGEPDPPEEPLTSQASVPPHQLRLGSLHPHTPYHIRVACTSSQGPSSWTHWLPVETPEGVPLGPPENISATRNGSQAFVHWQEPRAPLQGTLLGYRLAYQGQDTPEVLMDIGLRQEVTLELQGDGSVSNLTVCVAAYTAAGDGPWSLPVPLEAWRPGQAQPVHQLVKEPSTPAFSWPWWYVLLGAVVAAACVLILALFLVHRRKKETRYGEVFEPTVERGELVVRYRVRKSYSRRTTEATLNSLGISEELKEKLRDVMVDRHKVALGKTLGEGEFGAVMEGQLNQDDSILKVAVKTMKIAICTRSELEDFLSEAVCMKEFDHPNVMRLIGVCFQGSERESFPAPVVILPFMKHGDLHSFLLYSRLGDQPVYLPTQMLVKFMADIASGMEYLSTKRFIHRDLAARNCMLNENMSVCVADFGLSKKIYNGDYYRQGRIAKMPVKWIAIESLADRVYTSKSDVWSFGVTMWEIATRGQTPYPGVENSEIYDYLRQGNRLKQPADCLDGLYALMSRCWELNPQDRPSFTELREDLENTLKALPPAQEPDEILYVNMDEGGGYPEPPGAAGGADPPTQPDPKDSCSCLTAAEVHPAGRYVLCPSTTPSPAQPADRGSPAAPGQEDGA
Kind of assay: In vitro kinase activity (Millipore KinaseProfiler): Axl. It counts as biochemical. Particulars: no head or unit printed. How it is done: as §2, §3

Another assay concerns the target T3, cSRC (Homo sapiens, UniProt P12931).
T3 construct: purchased Millipore (KinaseProfiler service)
Kind of assay: In vitro kinase activity (Millipore KinaseProfiler): cSRC. Format: biochemical. Particulars: no head or unit printed. How it is done:
as §2, §3

The next assay concerns the target T4, DYRK2 (Homo sapiens, UniProt Q92630).
T4 construct: purchased Millipore (KinaseProfiler service)
The experiment in a line: In vitro kinase activity (Millipore KinaseProfiler): DYRK2. Format: biochemical. Particulars: no head or unit printed. On the procedure:
as §2, §3

A further assay has as its target T5, IR (Homo sapiens, UniProt P06213).
T5 construct: purchased Millipore (KinaseProfiler service)
Kind of assay: In vitro kinase activity (Millipore KinaseProfiler): IR. As to conditions: no head or unit printed. It counts as biochemical. How it is done: as §2, §3

In a further assay the target is T6, Met (Homo sapiens, UniProt P08581).
T6 construct: purchased Millipore (KinaseProfiler service)
Kind of assay: In vitro kinase activity (Millipore KinaseProfiler): Met. It counts as biochemical. Particulars: no head or unit printed. On the procedure: as §2, §3

The target in the next assay is T7, MLK1 (Homo sapiens, UniProt P80192).
T7 construct: purchased Millipore (KinaseProfiler service)
T7 sequence (P80192 whole entry, species assumed): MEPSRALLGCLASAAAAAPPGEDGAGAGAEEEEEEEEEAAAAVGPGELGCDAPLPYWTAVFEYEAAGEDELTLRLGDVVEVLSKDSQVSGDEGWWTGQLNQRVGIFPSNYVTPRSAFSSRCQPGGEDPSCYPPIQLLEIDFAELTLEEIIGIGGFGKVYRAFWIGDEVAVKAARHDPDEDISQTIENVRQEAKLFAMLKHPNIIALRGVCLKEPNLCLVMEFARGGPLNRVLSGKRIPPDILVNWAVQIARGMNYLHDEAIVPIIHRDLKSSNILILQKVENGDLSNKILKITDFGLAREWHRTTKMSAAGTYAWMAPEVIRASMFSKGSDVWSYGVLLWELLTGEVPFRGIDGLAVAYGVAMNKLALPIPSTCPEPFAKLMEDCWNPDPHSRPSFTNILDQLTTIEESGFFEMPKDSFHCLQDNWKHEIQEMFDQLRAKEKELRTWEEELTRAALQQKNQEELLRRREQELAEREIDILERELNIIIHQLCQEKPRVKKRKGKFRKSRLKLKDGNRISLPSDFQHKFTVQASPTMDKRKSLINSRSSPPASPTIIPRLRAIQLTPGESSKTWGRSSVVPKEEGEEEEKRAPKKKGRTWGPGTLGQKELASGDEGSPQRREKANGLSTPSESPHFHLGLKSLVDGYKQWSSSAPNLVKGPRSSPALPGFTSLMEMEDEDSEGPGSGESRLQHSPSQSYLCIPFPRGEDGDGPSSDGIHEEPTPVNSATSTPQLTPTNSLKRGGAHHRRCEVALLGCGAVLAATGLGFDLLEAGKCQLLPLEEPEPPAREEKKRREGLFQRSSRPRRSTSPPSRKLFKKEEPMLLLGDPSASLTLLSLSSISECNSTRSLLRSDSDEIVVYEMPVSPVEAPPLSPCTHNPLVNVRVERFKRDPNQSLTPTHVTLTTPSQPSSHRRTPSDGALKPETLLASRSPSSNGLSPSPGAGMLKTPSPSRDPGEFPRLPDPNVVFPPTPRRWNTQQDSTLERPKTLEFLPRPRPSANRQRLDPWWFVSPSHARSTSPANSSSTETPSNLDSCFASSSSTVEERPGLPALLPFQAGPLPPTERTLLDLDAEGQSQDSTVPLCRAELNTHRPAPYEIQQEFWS
The experiment in a line: In vitro kinase activity (Millipore KinaseProfiler): MLK1. Format: biochemical. Particulars: no head or unit printed. On the procedure: as §2, §3

The next assay addresses T8, PKA (Homo sapiens, UniProt P17612).
T8 construct: purchased Millipore (KinaseProfiler service)
Kind of assay: In vitro kinase activity (Millipore KinaseProfiler): PKA. It counts as biochemical. Particulars: no head or unit printed. On the procedure: as §2, §3

A further assay addresses T9, Rsk1 (Homo sapiens, UniProt Q15418).
T9 construct: purchased Millipore (KinaseProfiler service)
The experiment in a line: In vitro kinase activity (Millipore KinaseProfiler): Rsk1. Format: biochemical. As to conditions: no head or unit printed. On the procedure: as §2, §3

For a further assay, the target named is T10, TrkA (Homo sapiens, UniProt P04629).
T10 construct: purchased Millipore (KinaseProfiler service)
T10 sequence (P04629 33-796): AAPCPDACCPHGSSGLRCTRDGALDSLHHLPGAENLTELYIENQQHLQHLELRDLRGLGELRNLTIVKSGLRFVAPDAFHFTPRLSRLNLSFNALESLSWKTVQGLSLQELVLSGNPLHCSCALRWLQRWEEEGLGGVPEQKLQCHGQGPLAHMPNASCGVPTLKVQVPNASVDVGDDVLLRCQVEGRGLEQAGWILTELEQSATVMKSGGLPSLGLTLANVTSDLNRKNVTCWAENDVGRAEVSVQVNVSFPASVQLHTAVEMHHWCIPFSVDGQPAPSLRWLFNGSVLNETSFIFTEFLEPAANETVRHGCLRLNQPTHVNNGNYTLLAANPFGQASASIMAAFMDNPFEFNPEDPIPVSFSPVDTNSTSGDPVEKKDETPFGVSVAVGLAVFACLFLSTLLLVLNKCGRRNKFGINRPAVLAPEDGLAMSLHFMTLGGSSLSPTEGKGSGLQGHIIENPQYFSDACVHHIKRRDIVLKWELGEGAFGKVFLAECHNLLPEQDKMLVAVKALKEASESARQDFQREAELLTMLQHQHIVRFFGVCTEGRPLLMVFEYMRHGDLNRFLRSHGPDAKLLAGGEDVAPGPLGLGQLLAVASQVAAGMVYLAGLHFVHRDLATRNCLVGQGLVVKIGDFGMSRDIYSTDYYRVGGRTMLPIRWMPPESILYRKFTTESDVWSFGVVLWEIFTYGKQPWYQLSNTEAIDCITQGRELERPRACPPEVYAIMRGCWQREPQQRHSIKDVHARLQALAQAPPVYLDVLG
Kind of assay: In vitro kinase activity (Millipore KinaseProfiler): TrkA. Format: biochemical. Particulars: no head or unit printed. How it is done:
as §2, §3

Molecules are shown by their SMILES. A value given as a limit tells only on which side of the number the result lay.

T9 sequence (Q15418 whole entry, species assumed): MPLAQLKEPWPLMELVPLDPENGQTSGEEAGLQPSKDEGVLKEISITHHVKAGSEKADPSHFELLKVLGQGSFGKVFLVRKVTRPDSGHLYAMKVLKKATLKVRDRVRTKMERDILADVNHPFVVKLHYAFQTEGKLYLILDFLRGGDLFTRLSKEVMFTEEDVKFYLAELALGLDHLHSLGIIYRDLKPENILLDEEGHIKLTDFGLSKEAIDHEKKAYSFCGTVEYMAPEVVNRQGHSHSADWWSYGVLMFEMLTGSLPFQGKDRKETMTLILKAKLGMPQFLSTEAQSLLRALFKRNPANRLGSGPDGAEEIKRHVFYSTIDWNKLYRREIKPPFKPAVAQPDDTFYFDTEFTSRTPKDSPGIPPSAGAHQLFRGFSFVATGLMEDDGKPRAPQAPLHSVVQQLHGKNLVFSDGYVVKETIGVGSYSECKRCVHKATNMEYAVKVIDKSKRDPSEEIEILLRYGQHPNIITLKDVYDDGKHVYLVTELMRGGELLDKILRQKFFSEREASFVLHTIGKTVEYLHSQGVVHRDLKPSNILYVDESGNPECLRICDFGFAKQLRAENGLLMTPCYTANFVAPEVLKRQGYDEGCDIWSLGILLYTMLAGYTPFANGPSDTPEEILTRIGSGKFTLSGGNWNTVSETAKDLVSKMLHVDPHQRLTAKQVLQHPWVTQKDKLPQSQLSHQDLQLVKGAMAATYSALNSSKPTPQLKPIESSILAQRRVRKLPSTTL
T4 sequence (Q92630 whole entry, species assumed): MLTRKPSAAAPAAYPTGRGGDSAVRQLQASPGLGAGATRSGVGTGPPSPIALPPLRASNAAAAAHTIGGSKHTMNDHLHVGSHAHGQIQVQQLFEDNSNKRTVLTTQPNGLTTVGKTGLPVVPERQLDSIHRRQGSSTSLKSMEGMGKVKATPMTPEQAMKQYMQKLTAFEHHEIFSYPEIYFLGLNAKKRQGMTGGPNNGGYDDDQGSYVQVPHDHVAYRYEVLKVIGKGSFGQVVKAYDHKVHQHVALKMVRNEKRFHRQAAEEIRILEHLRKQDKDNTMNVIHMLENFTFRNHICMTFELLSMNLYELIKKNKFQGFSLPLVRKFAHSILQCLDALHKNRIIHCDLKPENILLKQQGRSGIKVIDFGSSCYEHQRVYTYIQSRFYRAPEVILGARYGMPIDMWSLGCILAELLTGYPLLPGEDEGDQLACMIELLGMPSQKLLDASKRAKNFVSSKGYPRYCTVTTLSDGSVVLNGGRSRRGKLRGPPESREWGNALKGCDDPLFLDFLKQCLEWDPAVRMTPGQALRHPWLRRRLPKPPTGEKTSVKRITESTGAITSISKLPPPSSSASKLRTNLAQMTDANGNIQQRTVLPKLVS
T3 sequence (P12931 whole entry, species assumed): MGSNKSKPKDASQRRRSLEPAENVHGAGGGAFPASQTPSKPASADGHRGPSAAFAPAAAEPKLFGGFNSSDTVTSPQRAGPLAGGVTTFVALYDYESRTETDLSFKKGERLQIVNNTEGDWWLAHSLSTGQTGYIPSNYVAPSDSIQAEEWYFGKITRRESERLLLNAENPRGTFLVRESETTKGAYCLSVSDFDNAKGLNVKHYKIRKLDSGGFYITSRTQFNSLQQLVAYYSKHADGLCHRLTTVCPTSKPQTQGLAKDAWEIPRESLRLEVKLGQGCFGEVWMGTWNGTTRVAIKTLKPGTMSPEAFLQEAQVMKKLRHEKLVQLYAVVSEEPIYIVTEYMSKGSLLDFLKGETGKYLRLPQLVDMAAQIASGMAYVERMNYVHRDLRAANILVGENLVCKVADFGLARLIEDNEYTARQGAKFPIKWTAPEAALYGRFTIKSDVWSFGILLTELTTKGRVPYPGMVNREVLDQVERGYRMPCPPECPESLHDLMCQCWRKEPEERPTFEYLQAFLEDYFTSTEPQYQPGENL

In the assay with RCC4 (Homo sapiens, RCC4, 96 h, XTT assay, four days), `CC(C)(C)c1ccc(S(=O)(=O)NCc2ccc(C(=O)Nc3cccnc3)cc2)cc1` [Example 38, 4-((4-tert-Butylphenylsulfonamido)methyl)-N-(pyridin-3-yl)benzamide] returned an IC50 of less than 1 µM. In addition, in the assay on RCC4 (four days of treatment, concentration-dependent, FIG. 2A), the “number of RCC4 cells compared to RCC4/VHL (XTT metabolic activity)” value is recorded as “significant decrease in the number of RCC4 cells”. In the assay with RCC4/VHL, the “Ratio (RCC4:RCC/VHL)” value is given as “c (“c” reflects a ratio of >100)”. In addition, the “hexokinase activity in RCC4/VHL” value in the assay with hexokinase is “unchanged”. Besides, the AMPK kinase activity with AMPK came to 92%. The ASK1 kinase activity on ASK1 was determined as 129%. Moreover, the Axl kinase activity on Axl is reported as 87. Moreover, the cSRC kinase activity on cSRC was determined as 104%. The same molecule returned a DYRK2 kinase activity on DYRK2 of 94%. For the same molecule, on IR, the IR kinase activity came to 121%. Besides, on Met, the Met kinase activity came to 105. The MLK1 kinase activity on MLK1 is 97%. The molecule further returned a PKA kinase activity on PKA of 96. Moreover, the Rsk1 kinase activity on Rsk1 turned out to be 120%. Further, on TrkA, the TrkA kinase activity was 124.

(Values after patent US20120225862A1, “HETEROARYL BENZAMIDES, COMPOSITIONS AND METHODS OF USE” (AUCKLAND UNIVSERVICES LIMITED, priority 2009, published 2012).)
